According to patent US12215389B2, “Compositions for detecting epigenetic modifications” (EXACT SCIENCES CORPORATION, priority 2007, dated 2025):

System: methylated gene promoters in fecal DNA
Test: Real-time MSP on stool (fecal) DNA
Set-up: species or system human
Settings: fecal samples; for Sens adenoma: 13 samples; for Sens CRC: 15 samples; for Spec: 19 samples
Excerpt: A standardized multicenter screening trial (The Netherlands) was initiated in 2006. In this trial, non symptomatic subjects aged 50 or above are screened with colonoscopy, FOBT and real-time MSP using DNA from stool and blood. In addition, prospectively collected stool samples from multiple centers (Germany and The Netherlands) were used. In these trials, symptomatic patients, attending a Gastroenterology clinic and ultimately diagnosed with CRC, provided a stool sample for use in real-time MSP. From the ongoing trials 147 stool samples were available for the present study. 3 main categories of stool samples were used: 67 samples with no suspicious findings, 58 adenomas and 22 samples from patients covering all stages of CRC, with 90% representing early stage disease.
After defecation in a special bucket, patients added 250 ml of stool homogenization buffer (Amresco, Solon, Ohio, USA) to the sample. Samples were shipped to the laboratory and further processed within 72 hours after defecation. Stool homogenization buffer was added to a ratio 1:7, and the samples were homogenized and aliquoted in portions of 32 ml.
Single aliquots (32 ml containing the equivalent of 4 g of stool) were centrifuged for 5 minutes at 2540 rcf at 20° C. The supernatant was retained and centrifuged a second time (10 minutes at 16500 rcf at 4° C.). 22 ml of the supernatant obtained following the second centrifugation step was incubated with 5 μl Rnase A for 60 minutes at 37° C. Total DNA was then SodiumAcetate (pH 5.2)-isopropanol precipitated and washed with 70% ethanol. The DNA was resuspended in 4 ml 1×TE (pH 7.4). 400 μl 10× buffer (240 mM EDTA (pH=8.0), 750 mM NaC), 400 μl 10% SDS, and 20 μl Proteinase K (20 mg/ml) was added and the samples were incubated at 48° C. overnight at constant shaking (225 RPM). After centrifugation (3000 RCF for 30 seconds at room temperature), 5 ml of Phenol:Chloroform:Isoamylalcohol (25:24:1, v/v:Invitrogen) was added and incubated for 10 minutes at room temperature shaking at 225 RPM and centrifuged for 5 minutes at 3000 RCF. The aqueous layer was transferred to a new tube containing 5 ml of Phenol:Chloroform:Isoamylalcohol. Again, the samples were incubated for 10 minutes at room temperature shaking at 225 RPM and centrifuged for 5 minutes at 3000 RCF at room temperature. The aqueous layer was transferred to a new tube and DNA was precipitated by adding 500 μl 7.5 M Ammonium Acetate, 5 μl glycogen and 10 ml of cold 100% Ethanol (−20° C.), further incubated at −20° C. for at least 1 hour and centrifuged at 15000 RCF for 30 minutes at 4° C. Pellets were washed with 3.5 ml freshly prepared 70% Ethanol and air dried. Pellets were finally resuspended in 2 ml of LoTE pH 8.0 and stored at −80° C., until further processing.
An upscaled DNA modification step was applied to 32 μg of the obtained DNA. 16 Aliquots of 2 μg of DNA were subjected to bisulfite modification in 96-wells format on a pipetting robot (Tecan), using the EZ-96DNA Methylation kit (Zymo Research), according to the manufacturer's protocol. Basically, aliquots of 45 μl were mixed with 5 μl of M-Dilution Buffer and incubated at 37° C. for 15 minutes shaking at 1100 rpm. Then 100 μl of the diluted CT Conversion Reagent was added and samples were incubated at 70° C. for 3 hours, shaking at 1100 rpm in the dark. After conversion, the samples were desalted by incubation on ice for 10 minutes and addition of 400 μl of M-Binding buffer. The samples were loaded on a Zymo-Spin I Column in a collection tube and after centrifugation washed with 200 μl of M-Wash Buffer. 200 μl of M-Desulphonation Buffer was put onto the column and incubated at room temperature for 15 minutes. After centrifugation of the columns, they were washed twice with 200 μl of M-Wash Buffer. Finally, the DNA was washed from the column in 50 μl Tris-HCl 1 mM pH8.0 and stored at −80° C., until further processing.

Substance: GATA5 (DNA AGTTCGTTTTTAGGTTAGTTTTCGGC; listed as DNA, chemistry not given here)
- Sens adenoma: 0%
- Sens CRC: 27%
- Spec: 100%

Substance: SFRP1 (DNA TGTAGTTTTCGGAGTTAGTGTCGCGC; listed as DNA, chemistry not given here)
- Sens adenoma: 8%
- Sens CRC: 67%
- Spec: 100%
